Results as given in patent publication US6372777B1, “Cyclic AMP-specific phosphodiesterase inhibitors” (ICOS Corporation, priority 1999, dated 2002).

tested on: human peripheral blood lymphocytes; assay: Lipopolysaccharide-stimulated TNFα release from human peripheral blood lymphocytes; format: cell-based; conditions: Homo sapiens, Lymphocyte; LPS-stimulated TNFα release; read-out: PBL/TNFα EC50
Procedure: The compounds of structural formulae (I) and (II) also were tested for an ability to reduce TNFα secretion in human peripheral blood lymphocytes. The ability to reduce TNFα secretion is related to the EC50 values (i.e., the effective concentration of the compound capable of inhibiting 50% of the total TNFα). To assess the ability of a compound to reduce TNFα secretion in human peripheral blood lymphocytes (PBL), the following tests were performed. […] Heparinized blood (approximately 30 mL) drawn from human volunteers was mixed 1:1 with Dulbecco's modified phosphate-buffered saline. This mixture was mixed 1:1 with HISTOPAQUE and centrifuged at 1,500 rpm at room temperature without braking in the swinging bucket of a Beckman model TJ6 centrifuge. Erythrocytes were centrifuged to the bottom of the tubes, and serum remained at the surface of the tubes. A layer containing lymphocytes sedimented between the serum and HISTOPAQUE® layers, and was removed by aspiration to a fresh tube. The cells were quantified and adjusted to 3×10^6 cells/mL and a 100 μL aliquot is placed into the wells of a 96 well plate. Test compounds and RPMI media (Gibco/BRL Life Sciences) are added to each of the wells 15 minutes prior to addition of bacterial LPS ([…]). The mixture was allowed to incubate for 20 hours at 37° C. in a humidified chamber. The cells then were separated by centrifuging at 800 rpm for 5 minutes at room temperature. An aliquot of 80 µL of supernatant was transferred to a new plate or determination of TNFα concentration. TNFα protein in the cell supernatant fluids was measured using a commercially available enzyme-linked immunosorbent assay (ELISA) (CYTOSCREEN® Immunoassay Kit from Biosource International). The cell-based assay provided the following results for various compounds of the present invention. The EC50 values (i.e., effective concentration of the compound capable of inhibiting 50% of the total TNFα ) illustrate the ability of the present compounds to inhibit LPS-stimulated TNFα release from human PBL.

| EC50 | SMILES |
| --- | --- |
| 10 µM | CCOC(=O)c1cc(C)n(-c2ccccc2)c1-c1ccccc1 [Example 21, 5-Methyl-1,2-diphenyl-1H-pyrrole-3-carboxylic acid ethyl ester] |
| 6.72 µM | CCOC(=O)c1cc(C)n(-c2cccc(N)c2)c1-c1ccccc1 [Example 40, 1-(3-Aminophenyl)-5-methyl-2-phenyl-1H-pyrrole-3-carboxylic acid ethyl ester] |

molecular target: T1, human recombinant PDE4 (Homo sapiens, UniProt Q07343); assay: Inhibition of human recombinant PDE4 (IC50); format: biochemical; conditions: not given
T1 construct: made in house; host or cells: Saccharomyces cerevisiae BJ2-54 (strain YI23 harboring HDUN2.32, if PDE4B)
T1 sequence (Q07343 1-564 isoform Q07343-2): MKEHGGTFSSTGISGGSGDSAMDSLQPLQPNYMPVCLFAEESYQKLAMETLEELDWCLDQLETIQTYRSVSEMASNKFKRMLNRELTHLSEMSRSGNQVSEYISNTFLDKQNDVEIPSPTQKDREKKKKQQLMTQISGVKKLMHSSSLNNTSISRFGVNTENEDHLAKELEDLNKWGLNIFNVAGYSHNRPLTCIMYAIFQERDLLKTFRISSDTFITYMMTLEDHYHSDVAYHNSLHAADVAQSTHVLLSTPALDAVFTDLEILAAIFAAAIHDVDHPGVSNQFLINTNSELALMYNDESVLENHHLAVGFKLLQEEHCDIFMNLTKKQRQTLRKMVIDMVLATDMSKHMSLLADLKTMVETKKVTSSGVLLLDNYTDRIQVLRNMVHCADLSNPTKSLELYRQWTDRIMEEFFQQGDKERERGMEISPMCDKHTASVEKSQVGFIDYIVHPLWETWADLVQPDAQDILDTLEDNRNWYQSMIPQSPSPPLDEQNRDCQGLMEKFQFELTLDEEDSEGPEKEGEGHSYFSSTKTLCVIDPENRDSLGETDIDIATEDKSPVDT

| SMILES | IC50 |
| --- | --- |
| CCOC(=O)c1cc(-c2ccccc2)n(-c2cccc(F)c2)c1C [Example 18, 1-(3-Fluorophenyl)-2-methyl-5-phenyl-1H-pyrrole-3-carboxylic acid ethyl ester] | 0.62 µM |
| CCOC(=O)c1cc(-c2ccccc2)n(-c2cccc(Br)c2)c1C [Example 26, 1-(3-Bromophenyl)-2-methyl-5-phenyl-1H-pyrrole-3-carboxylic acid ethyl ester] | 3.07 µM |
| CCOC(=O)c1cc(-c2ccccc2)n(-c2ccccc2[N+](=O)[O-])c1C [Example 34, 2-Methyl-1-(2-nitrophenyl)-5-phenyl-1H-pyrrole-3-carboxylic acid ethyl ester] | 1.65 µM |
| CCOC(=O)c1cc(C)n(-c2cccc(C(=O)O)c2)c1-c1ccccc1 [Example 24, 1-(3-Carboxyphenyl)-5-methyl-2-phenyl-1H-pyrrole-3-carboxylic acid ethyl ester] | 16.5 µM |
| CCOC(=O)c1cc(-c2ccccc2)n(-c2cccc(N(C)C)c2)c1C [Example 1, 1-(3-Dimethylaminophenyl)-2-methyl-5-phenyl-1H-pyrrole-3-carboxylic acid ethyl ester] | 8.22 µM |
| CCOC(=O)c1cc(-c2ccccc2)n(-c2cccc(S(C)(=O)=O)c2)c1C [Example 10, 1-(3-Methanesulfonylphenyl)-2-methyl-5-phenyl-1H-pyrrole-3-carboxylic acid ethyl ester] | 4.38 µM |
| CCOC(=O)c1cc(C)n(-c2cccc(Cl)c2)c1-c1ccccc1 [Example 2, 1-(3-Chlorophenyl)-5-methyl-2-phenyl-1H-pyrrole-3-carboxylic acid ethyl ester] | 5.45 µM |
| CCOC(=O)c1cc(C)n(-c2cccc(Br)c2)c1-c1ccccc1 [Example 6, 1-(3-Bromophenyl)-5-methyl-2-phenyl-1H-pyrrole-3-carboxylic acid ethyl ester] | 8.55 µM |
| CCOC(=O)c1cc(C)n(-c2cccc(N(C)C)c2)c1-c1ccccc1 [Example 13, 1-(3-Dimethylaminophenyl)-5-methyl-2-phenyl-1H-pyrrole-3-carboxylic acid ethyl ester] | 0.15 µM |
| CCOC(=O)c1cc(C)n(-c2cccc(C(F)(F)F)c2)c1-c1ccccc1 [Example 29, 5-Methyl-2-phenyl-1-(3-trifluoro-methylphenyl)-1H-pyrrole-3-carboxylic acid ethyl ester] | 6.78 µM |
| Cc1cc(C(=O)O)c(-c2ccccc2)n1-c1cccc([N+](=O)[O-])c1 [Example 43, 5-Methyl-1-(3-nitrophenyl)-2-phenyl-1H-pyrrole-3-carboxylic acid] | 15.6 µM |
| CCOC(=O)c1cc(C)n(-c2ccc(N)cc2)c1-c1ccccc1 [Example 37, 1-(4-Aminophenyl)-5-methyl-2-phenyl-1H-pyrrole-3-carboxylic acid ethyl ester] | 16 µM |
| CCOC(=O)c1cccc(-n2c(C)cc(C(=O)OCC)c2-c2ccccc2)c1 [Example 46, 1-(3-Ethoxycarbonylphenyl)-5-methyl-2-phenyl-1H-pyrrole-3-carboxylic acid ethyl ester] | 8.7 µM |
| CCOC(=O)c1cc(C)n(-c2cccc(N)c2)c1-c1ccccc1 [Example 40, 1-(3-Aminophenyl)-5-methyl-2-phenyl-1H-pyrrole-3-carboxylic acid ethyl ester] | 1.29 µM |
| CCOC(=O)c1cc(-c2ccccc2)n(C2CCCCC2)c1C [Example 20, 1-Cyclohexyl-2-methyl-5-phenyl-1H-pyrrole-3-carboxylic acid ethyl ester] | 0.99 µM |
| CCOC(=O)c1cc(C)n(Cc2cccc([N+](=O)[O-])c2)c1-c1ccccc1 [Example 31, 5-Methyl-1-(3-nitrobenzyl)-2-phenyl-1H-pyrrole-3-carboxylic acid ethyl ester] | 5.13 µM |
| CCOC(=O)c1cc(C)n(-c2cc(C(F)(F)F)cc(C(F)(F)F)c2)c1-c1ccccc1 [Example 45, 1-(3,5-Bis-trifluoromethylphenyl)-5-methyl-2-phenyl-1H-pyrrole-3-carboxylic acid ethyl ester] | 194 µM |
| CCOC(=O)c1cc(-c2ccccc2)n(-c2cccc(N)c2)c1C [Example 41, 1-(3-Aminophenyl)-2-methyl-5-phenyl-1H-pyrrole-3-carboxylic acid ethyl ester] | 1.42 µM |
| CCOC(=O)c1cc(-c2ccccc2)n(-c2cccnc2)c1C [Example 19, 2-Methyl-5-phenyl-1-pyridin-3-yl-1H-pyrrole-3-carboxylic acid ethyl ester] | 1.28 µM |
| CCOC(=O)c1cc(-c2ccccc2)n(-c2ccc([N+](=O)[O-])cc2)c1C [Example 33, 2-Methyl-1-(4-nitrophenyl) -5-phenyl-1H-pyrrole-3-carboxylic acid ethyl ester] | 1.4 µM |
| CCOC(=O)c1cc(-c2ccccc2)n(-c2cccc(C(N)=O)c2)c1C [Example 11, 1-(3-Carbamoylphenyl)-2-methyl-5-phenyl-1H-pyrrole-3-carboxylic acid ethyl ester] | 5.45 µM |
| CCOC(=O)c1cc(-c2ccccc2)n(-c2cccc(C(C)=O)c2)c1C [Example 8, 1-(3-Acetylphenyl)-2-methyl-5-phenyl-1H-pyrrole-3-carboxylic acid ethyl ester] | 0.59 µM |

Next, values leading:

| IC50 | SMILES |
| --- | --- |
| 133 µM | CCOC(=O)c1cc(C)n(-c2ccc([N+](=O)[O-])cn2)c1-c1ccccc1 [Example 23, 5-Methyl-1-(5-nitropyridin-2-yl)-2-phenyl-1H-pyrrole-3-carboxylic acid ethyl ester] |
| 13.2 µM | CCOC(=O)c1cc(C)n(-c2cccc(F)c2)c1-c1ccccc1 [Example 17, 1-(3-Fluorophenyl)-5-methyl-2-phenyl-1H-pyrrole-3-carboxylic acid ethyl ester] |
| 6.1 µM | CCOC(=O)c1cc(-c2ccccc2)n(-c2cccc(C)c2)c1C [Example 5, 2-Methyl-5-phenyl-l-m-tolyl-1H-pyrrole-3-carboxylic acid ethyl ester] |
| 110 µM | CCOC(=O)c1cc(C)n(-c2ccc([N+](=O)[O-])cc2)c1-c1ccccc1 [Example 36, 5-Methyl-1-(4-nitrophenyl)-2-phenyl-1H-pyrrole-3-carboxylic acid ethyl ester] |
| 1.3 µM | CCOC(=O)c1cc(-c2ccccc2)n(-c2ccc(N)cc2)c1C [Example 38, 1-(4-Aminophenyl)-2-methyl-5-phenyl-1H-pyrrole-3-carboxylic acid ethyl ester] |
| 2.9 µM | CCOC(=O)c1cc(C)n(-c2cccc(C)c2)c1-c1ccccc1 [Example 4, 5-Methyl-2-phenyl-1-m-tolyl-1H-pyrrole-3-carboxylic acid ethyl ester] |
| 4.58 µM | CCOC(=O)c1cc(C)n(-c2cccc(S(C)(=O)=O)c2)c1-c1ccccc1 [Example 9, 1-(3-Methanesulfonylphenyl)-5-methyl-2-phenyl-1H-pyrrole-3-carboxylic acid ethyl ester] |
| 5.74 µM | CCOC(=O)c1cc(-c2ccccc2)n(-c2ccc([N+](=O)[O-])cn2)c1C [Example 35, 2-Methyl-1-(5-nitropyridin-2-yl)-5-phenyl-1H-pyrrole-3-carboxylic acid ethyl ester] |
| 13.4 µM | CCOC(=O)c1cc(-c2ccccc2)n(Cc2cccc([N+](=O)[O-])c2)c1C [Example 30, 2-Methyl-1-(3-nitrobenzyl)-5-phenyl-1H-pyrrole-3-carboxylic acid ethyl ester] |
| 0.2 µM | CCOC(=O)c1cc(C)n(-c2cccc([N+](=O)[O-])c2)c1-c1ccccc1 [Example 39, 1-(3-Nitrophenyl)-5-methyl-2-phenyl-1H-pyrrole-3-carboxylic acid ethyl ester] |
| 2.28 µM | CCOC(=O)c1cc(-c2ccccc2)n(-c2cccc(C(F)(F)F)c2)c1C [Example 28, 2-Methyl-5-phenyl-1-(3-trifluoro-methylphenyl)-1H-pyrrole-3-carboxylic acid ethyl ester] |
| 13.4 µM | CCOC(=O)c1cc(C)n(-c2cccnc2)c1-c1ccccc1 [Example 32, 5-Methyl-2-phenyl-1-pyridin-3-yl-1H-pyrrole-3-carboxylic acid ethyl ester] |
| 6.83 µM | CCOC(=O)c1cc(C)n(-c2cccc(C(C)=O)c2)c1-c1ccccc1 [Example 7, 1-(3-Acetylphenyl)-5-methyl-2-phenyl-1H-pyrrole-3-carboxylic acid ethyl ester] |
| 0.22 µM | CCOC(=O)c1cc(C)n(-c2cccc(C(N)=O)c2)c1-c1ccccc1 [Example 12, 1-(3-Carbamoylphenyl)-5-methyl-2-phenyl-1H-pyrrole-3-carboxylic acid ethyl ester] |
